Measurements: ChEMBL document CHEMBL1144105, “Antioxidant principles from Ephemerantha lonchophylla” (J Nat Prod, 1999)

Experiment: Antioxidant activity against copper-induced lipid peroxidation in human LDL after 1 hr relative to probucol
Format: functional

SMILES	Activity [%]
CC(C)(Sc1cc(C(C)(C)C)c(O)c(C(C)(C)C)c1)Sc1cc(C(C)(C)C)c(O)c(C(C)(C)C)c1	1
COC1=CC(=O)c2ccc3cc(OC)cc(O)c3c2C1=O	0.4
CCOC1=CC(=O)c2ccc3cc(OC)cc(O)c3c2C1=O	0.2
Oc1ccc(/C=C/c2cc(O)cc(O)c2)cc1	0.7
COc1cc(CCc2cc(OC)c(O)c(OC)c2)ccc1O	7.8
COc1cc(CCc2ccc(O)c(OC)c2)cc(OC)c1	0.9
COC1=Cc2ccc3cc(O)ccc3c2C(=O)C1(O)CC(C)=O (configuration not stated)	5.3
